Assay results: patent US11427548B2 (Arvinas Operations, Inc., priority 2015, dated 2022)
Read-outs that look alike come from different tables or passages of the source.

Target: T1, Androgen Receptor (Homo sapiens, UniProt P10275)
T1 construct: endogenous in cells; host or cells: VCaP cells
T1 sequence (P10275 1-920): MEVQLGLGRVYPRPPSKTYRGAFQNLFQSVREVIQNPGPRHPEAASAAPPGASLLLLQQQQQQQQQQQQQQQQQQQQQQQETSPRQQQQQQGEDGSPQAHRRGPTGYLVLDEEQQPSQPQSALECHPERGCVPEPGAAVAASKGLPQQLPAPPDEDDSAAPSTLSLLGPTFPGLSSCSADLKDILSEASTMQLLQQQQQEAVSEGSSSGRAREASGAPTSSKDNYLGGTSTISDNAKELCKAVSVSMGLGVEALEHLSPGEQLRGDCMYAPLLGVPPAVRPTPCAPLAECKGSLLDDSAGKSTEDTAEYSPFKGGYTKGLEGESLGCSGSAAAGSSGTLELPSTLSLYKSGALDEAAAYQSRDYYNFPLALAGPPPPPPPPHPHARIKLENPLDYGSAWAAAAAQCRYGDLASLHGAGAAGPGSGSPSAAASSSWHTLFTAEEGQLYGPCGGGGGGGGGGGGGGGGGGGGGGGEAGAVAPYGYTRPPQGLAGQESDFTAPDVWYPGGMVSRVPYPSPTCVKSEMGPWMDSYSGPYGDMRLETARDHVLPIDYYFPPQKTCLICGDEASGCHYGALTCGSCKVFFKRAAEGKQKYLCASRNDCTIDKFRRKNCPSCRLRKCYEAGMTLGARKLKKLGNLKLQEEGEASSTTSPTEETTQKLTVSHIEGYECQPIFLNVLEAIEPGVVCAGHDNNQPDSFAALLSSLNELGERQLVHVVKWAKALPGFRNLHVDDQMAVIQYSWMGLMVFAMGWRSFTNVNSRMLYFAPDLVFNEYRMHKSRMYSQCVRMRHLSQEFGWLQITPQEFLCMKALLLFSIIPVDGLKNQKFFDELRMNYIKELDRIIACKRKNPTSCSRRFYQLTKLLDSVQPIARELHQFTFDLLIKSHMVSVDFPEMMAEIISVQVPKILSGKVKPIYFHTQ
Assay: Androgen Receptor ELISA assay (PathScan AR ELISA) in VCaP cells: AR degradation, Dmax and DC50
Format: cell-based
In short: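 After 24 h exposure of VCaP cells (charcoal-stripped serum, 0.1 nM R1881 agonist, 0.1% DMSO) to seven half-log compound concentrations, residual AR in lysates was measured by PathScan ELISA (TMB absorbance, 450 nm). Cells were plated at 30,000/well and grown at least 3 days beforehand.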

[1] = VCaP cells; Table 36; read-out: VCaP DC50
[2] = VCaP, VCaP cells; Table 36; read-out: VCaP Dmax (%)
[3] = read-out: VCaP DC50; VCaP cells; Table 36
[4] = VCaP, read-out: VCaP Dmax (%), VCaP cells; Table 36

Row | Compound | DC50 [1] | Dmax [2] | Dmax (VCaP, read-out: VCaP Dmax (%)) | DC50 [3] | Dmax [4]
1 | Cc1ncsc1-c1ccc([C@H](C)NC(=O)[C@@H]2C[C@@H](O)CN2C(=O)[C@H](C(C)C)n2cc(-c3ccnc(OC4CN(c5ccc(C(=O)N[C@H]6C(C)(C)[C@H](Oc7ccc(C#N)c(Cl)c7)C6(C)C)cn5)C4)c3)cn2)cc1 [Example 594, N-((1r,3r)-3-(3-chloro-4-cyanophenoxy)-2,2,,4-tetramethylcyclobutyl)-6-(3-((4-(1-((S)-1-((2S,4R)-4-hydroxy-2-(((S)-1-(4-(4-methylthiazol-5-yl)phenyl)ethyl)carbam-oyl)pyrrolidin-1-yl)-3-methyl-1-oxobutan-2-yl)-1H-pyrazol-4-yl)pyridin-2-yl)oxy)azetidin-1-yl)nicotinamide] | > 0.501 µM | < 25% |  |  | 
2 | Cc1ncsc1-c1ccc([C@H](C)NC(=O)[C@@H]2C[C@@H](O)CN2C(=O)[C@@H](C(C)C)n2cc(-c3ccnc(OC4CN(c5ccc(C(=O)N[C@H]6C(C)(C)[C@H](Oc7ccc(C#N)c(Cl)c7)C6(C)C)cn5)C4)c3)cn2)cc1 [Example 595, N-((1r,3r)-3-(3-chloro-4-cyanophenoxy)-2,2,4,4-tetramethylcyclobutyl)-6-(3-((4-(1-((R)-1-((2S,4R)-4-hydroxy-2-(((S)-1-(4-(4-methylthiazol-5-yl)phenyl)ethyl)carbam-oyl)pyrrolidin-1-yl)-3-methyl-1-oxobutan-2-yl)-1H-pyrazol-4-yl)pyridin-2-yl)oxy)azetidin-1-yl)nicotinamide] | < 0.05 µM | 51 to 70% |  |  | 
3 | Cc1ncsc1-c1ccc([C@H](C)NC(=O)[C@@H]2C[C@@H](O)CN2C(=O)[C@H](C(C)C)n2cc(-c3ccnc(N4CC[C@@H](Nc5ccc(C(=O)N[C@H]6C(C)(C)[C@H](Oc7ccc(C#N)c(Cl)c7)C6(C)C)cc5)C4)c3)cn2)cc1 [Example 596, (2S,4R)-1-((S)-2-(4-(2-((R)-3-((4-(((1r,3R)-3-(3-chloro-4-cyanophenoxy)-2,2,4,4-tetramethylcyclobutyl)carbamoyl)phenyl)amino)pyrrolidin-1-yl)pyridin-4-yl)-1H-pyrazol-1-yl)-3-methylbutanoyl)-4-hydroxy-N-((S)-1-(4-(4-methylthiazol-5-yl)phenyl)ethyl)pyrroli-dine-2-carboxamide] | > 0.501 µM | 26 to 50% |  |  | 
4 | Cc1ncsc1-c1ccc([C@H](C)NC(=O)[C@@H]2C[C@@H](O)CN2C(=O)[C@@H](C(C)C)n2cc(-c3ccnc(N4CC[C@@H](Nc5ccc(C(=O)N[C@H]6C(C)(C)[C@H](Oc7ccc(C#N)c(Cl)c7)C6(C)C)cc5)C4)c3)cn2)cc1 [Example 597, (2S,4R)-1-((R)-2-(4-(2-((R)-3-((4-(((1r,3R)-3-(3-chloro-4-cyanophenoxy)-2,2,4,4-tetramethylcylcobutyl)carbamoyl)phenyl)amino)pyrrolidin-1-yl)pyridin-4-yl)-1H-pyrazol-1-yl)-3-methylbutanoyl)-4-hydroxy-N-((S)-1-(4-(4-methylthiazol-5-yl)phenyl)ethyl)pyrroli-dine-2-carboxamide] | > 0.501 µM | < 25% |  |  | 
5 | Cc1ncsc1-c1ccc(CNC(=O)[C@@H]2C[C@@H](O)CN2C(=O)[C@H](C(C)C)n2cc(OC3CCN(c4ccc(-c5ccc(N6C(=S)N(c7ccc(C#N)c(C(F)(F)F)c7)C(=O)C6(C)C)cc5)cn4)CC3)cn2)cc1 [Example 598, 1-(2-(4-((1-(5-(4-(3-(4-cyano-3-(trifluoromethyl)phenyl)-5,5-dimethyl-4-oxo-2-thioxoimidazolidin-1-yl)phenyl)pyridin-2-yl)piperidin-4-yl)oxy)-1H-pyrazol-1-yl)-3-mehtylbutanoyl)-4-hydroxy-N-(4-(4-methylthiazol-5-yl)benzyl)pyrrolidine-2-carboxamide] |  |  | 26 to 50% | > 0.501 µM | 
6 | Cc1ncsc1-c1ccc(CNC(=O)[C@@H]2C[C@@H](O)CN2C(=O)[C@@H](C(C)C)n2cc(OC3CCN(c4ccc(-c5ccc(N6C(=S)N(c7ccc(C#N)c(C(F)(F)F)c7)C(=O)C6(C)C)cc5)cn4)CC3)cn2)cc1 [Example 599, (2S,4R)-1-((R)-2-(4-((1-(5-(4-(3-(4-cyano-3-(trifluoromethyl)phenyl)-5,5-dimethyl-4-oxo-2-thioxoimidazolidin-1-yl)phenyl)pyridin-2-yl)piperidin-4-yl)oxy)-1H-pyrazol-1-yl)-3-methylbutanoyl)-4-hydroxy-N-(4-(4-methylthiazol-5-yl)benzyl)pyrrolidine-2-carboxamide] |  |  | 26 to 50% | > 0.501 µM | 
7 | Cc1ncsc1-c1ccc([C@H](C)NC(=O)[C@@H]2C[C@@H](O)CN2C(=O)[C@H](C(C)C)n2cc(Oc3cccc(OCCCCCOc4ccc(N5C(=S)N(c6ccc(C#N)c(C(F)(F)F)c6)C(=O)C5(C)C)cc4)c3)cn2)cc1 [Example 600, (2S,4R)-1-((S)-2-(4-(3-((5-(4-(3-(4-cyano-3-(trifluoromethyl)phenyl)-5,5-dimethyl-4-oxo-2-thioxoimidazolidin-1-yl)phenoxy)pentyl)oxy)phenoxy)-1H-pyrazol-1-yl)-3-methylbutanoyl)-4-hydroxy-N-((S)-1-(4-(4-methylthiazol-5-yl)phenyl)ethyl)pyrroli-dine-2-carboxamide] |  |  | 26 to 50% | > 0.501 µM | 
8 | Cc1ncsc1-c1ccc(CNC(=O)[C@@H]2C[C@@H](O)CN2C(=O)[C@H](C(C)C)n2cc(Oc3cccc(OCCCCCOc4ccc(N5C(=S)N(c6ccc(C#N)c(C(F)(F)F)c6)C(=O)C5(C)C)cc4)c3)cn2)cc1 [Example 601, (2S,4R)-1-((S)-2-(4-(3-((5-(4-(3-(4-cyano-3-(trifluoromethyl)phenyl)-5,5-dimethyl-4-oxo-2-thioxoimidazolidin-1-yl)phenoxy)pentyl)oxy)phenoxy)-1H-pyrazol-1-yl)-3-methylbutanoyl)-4-hydroxy-N-(4-(4-methylthiazol-5-yl)benzyl)pyrrolidine-2-carboxamide] |  |  | < 25% | > 0.501 µM | 
9 | Cc1ncsc1-c1ccc([C@H](C)NC(=O)[C@@H]2C[C@@H](O)CN2C(=O)[C@@H](C(C)C)n2cc(-c3ccnc(OC4CN(c5ncc(C(=O)NC6C(C)(C)C(Oc7ccc(C#N)c(Cl)c7)C6(C)C)cn5)C4)c3)cn2)cc1 (stereo partly drawn) [Example 603, N-(3-(3-chloro-4-cyanophenoxy)-2,2,4,4-tetramethylcyclobutyl)-2-(3-((4-(1-((R)-1-((2S,4R)-4-hydroxy-2-(((S)-1-(4-(4-methylthiazol-5-yl)phenyl)ethyl)carbam-oyl)pyrrolidin-1-yl)-3-methyl-1-oxobutan-2-yl)-1H-pyrazol-4-yl)pyridin-2-yl)oxy)azetidin-1-yl)pyrimidine-5-carboxamide] | > 0.501 µM |  |  |  | < 25%
10 | Cc1ncsc1-c1ccc([C@H](C)NC(=O)[C@@H]2C[C@@H](O)CN2C(=O)[C@H](C(C)C)n2cc(-c3ccnc(OC4CN(c5ncc(C(=O)NC6C(C)(C)C(Oc7ccc(C#N)c(Cl)c7)C6(C)C)cn5)C4)c3)cn2)cc1 (stereo partly drawn) [Example 604, N-(3-(3-chloro-4-cyanophenoxy)-2,2,4,4-tetramethylcyclobutyl)-2-(3-((4-(1-((S)-1-((2S,4R)-4-hydroxy-2-(((S)-1-(4-(4-methylthiazol-5-yl)phenyl)ethyl)carbam-oyl)pyrrolidin-1-yl)-3-methyl-1-oxobutan-2-yl)-1H-pyrazol-4-yl)pyridin-2-yl)oxy)azetidin-1-yl)pyrimidine-5-carboxamide] | < 0.05 µM |  |  |  | 51 to 70%
